In patent publication US12195482B1 (Arcus Biosciences, Inc., priority 2022, dated 2025) one finds IC50 data, which are given here for ten compounds.

One experiment concerns the target T1, p-AXL (Homo sapiens, UniProt P30530).
T1 construct: expressed in transfected cells; host or cells: HEK293T
T1 sequence (P30530 26-894): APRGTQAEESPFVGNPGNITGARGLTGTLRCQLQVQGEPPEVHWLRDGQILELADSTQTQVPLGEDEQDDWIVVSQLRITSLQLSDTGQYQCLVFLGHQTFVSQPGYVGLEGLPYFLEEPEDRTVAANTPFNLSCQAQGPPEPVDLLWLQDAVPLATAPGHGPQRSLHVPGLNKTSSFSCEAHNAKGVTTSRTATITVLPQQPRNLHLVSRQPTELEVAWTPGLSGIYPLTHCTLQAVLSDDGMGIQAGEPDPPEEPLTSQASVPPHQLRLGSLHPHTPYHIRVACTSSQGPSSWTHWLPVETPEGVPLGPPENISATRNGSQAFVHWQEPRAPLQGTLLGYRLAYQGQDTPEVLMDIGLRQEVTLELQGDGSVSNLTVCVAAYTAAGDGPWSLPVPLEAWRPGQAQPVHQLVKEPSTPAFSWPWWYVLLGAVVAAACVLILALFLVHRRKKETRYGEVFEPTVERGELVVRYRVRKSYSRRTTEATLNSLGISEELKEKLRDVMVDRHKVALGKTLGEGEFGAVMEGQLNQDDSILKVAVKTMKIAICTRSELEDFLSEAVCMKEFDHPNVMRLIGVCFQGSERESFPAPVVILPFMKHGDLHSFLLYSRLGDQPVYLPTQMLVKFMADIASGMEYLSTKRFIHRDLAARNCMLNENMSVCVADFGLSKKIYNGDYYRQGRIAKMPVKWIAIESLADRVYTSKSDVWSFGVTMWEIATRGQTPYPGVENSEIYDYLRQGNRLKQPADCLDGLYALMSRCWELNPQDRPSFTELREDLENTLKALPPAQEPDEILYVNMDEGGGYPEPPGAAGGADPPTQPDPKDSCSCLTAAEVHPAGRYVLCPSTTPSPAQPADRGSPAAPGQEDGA
In words: Axl phosphorylation inhibition ELISA in HEK293T cells transfected with NanoLuc-tagged AXL. The experiment is classed as cell-based. The conditions noted are these: 1 h compound incubation, media (OptiMEM). The method in brief: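 Phospho-AXL detected by luminescence of NanoLuc tag after capture of cell lysate on biotinylated anti-phospho-tyrosine mAb plates (2 h). Lysates came from transiently transfected HEK293T cells treated 1 h at 37° C with serial 2-fold dilutions (22 points). IC50 by standard 4-parameter logistic fitting.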

The target of a further experiment is T2, Axl (Homo sapiens, UniProt P30530).
T2 sequence (P30530 26-894): T1 sequence (P30530 26-894)
In words: Axl NanoBRET intracellular kinase assay (intracellular binding, K-5 tracer displacement). The settings on record: HEK-293 cells transfected with Axl-NanoLuc, 0.35 μM K-5 NanoBRET tracer; read-out: Cell Binding AXL. Also on record: host or cells: HEK-293. As for the experimental part:
Measuring Intracellular Binding of Axl Inhibitors
Axl NanoBRET™ intracellular kinase assay (Promega, N2540) was performed according to manufacturer's recommendation. In brief, HEK-293 cells are transiently transfected with Ax1-NanoLuc fusion vector (Promega, NV1071), utilizing Fugene HD transfection reagent (Promega, E2311) a day before experiment following manufacturer's recommendation.
The day of the assay, the cells were collected and resuspended in Opti-MEM media (ThermoFisher, 31985070) at 2e5 cells/mL concentration. Testing compounds were serial diluted and dispensed into a white 384 well polystyrene plate at 200 nL in 100% DMSO. 40 μL of resuspended cells is then added per well for a final condition of 8K cells/well with 0.5% DMSO. After one-hour compound pre-incubation at 37° C. and 5% CO2, cells were further incubated with 0.35 μM K-5 NanoBRET tracer for two-hours at 37° C. and 5% CO2. […] of 3× substrate plus Inhibitor solution was prepared according to kits manual and added to the cells followed by a 30 second pulse centrifugation spin. The plate was then immediately read utilizing an Envision (Perkin Elmer) plate reader. The BRET signal is measured by taking the ratio of the emissions reading at 610 nm and 450 nm. Compound binding is based on the decrease BRET signal caused by the displacement of the K-5 tracer. […] ICso value of compounds was determined by 4-parameter non-linear regression fitting of percent activity in GraphPad Prism software.

As to `COc1cccnc1-c1ccc(-c2n[nH]c3ncc(-c4ccc5c(c4)CC[C@@H](N4C6COCC4C6)CC5)cc23)cc1` [Example 166, 6-[(7S)-2-{3-[4-(3-Methoxypyridin-2-yl)phenyl]-1H-pyrazolo[3,4-b]pyridin-5-yl}-6,7,8,9-tetrahydro-5H-benzo[7]annulen-7-yl]-3-oxa-6-azabicyclo[3.1.1]heptane], the IC50 on p-AXL and on Axl was less than 100 nM in each case.
For the compound `Cc1ccnnc1-c1ccc(-c2n[nH]c3ncc(-c4ccc5c(c4)CC[C@@H](N4C6COCC4C6)CC5)cc23)cc1` [Example 176, 6-[(7S)-2-{3-[4-(4-Methylpyridazin-3-yl)phenyl]-1H-pyrazolo[3,4-b]pyridin-5-yl}-6,7,8,9-tetrahydro-5H-benzo[7]annulen-7-yl]-3-oxa-6-azabicyclo[3.1.1]heptane], the IC50 at p-AXL and on Axl was less than 100 nM each time.
For the compound `CC(C)(O)c1cccnc1-c1ccc(-c2c[nH]c3ncc(-c4ccc5c(c4)CC[C@@H](N4C6COCC4C6)CC5)cc23)cc1` [Example 95, 2-[2-(4-{5-[(7S)-7-{3-Oxa-6-azabicyclo[3.1.1]heptan-6-yl}-6,7,8,9-tetrahydro-5H-benzo[7]annulen-2-yl]-1H-pyrrolo[2,3-b]pyridin-3-yl}phenyl)pyridin-3-yl]propan-2-ol], the IC50 against p-AXL and on Axl was less than 100 nM throughout.
`Cc1cccnc1-c1ccc(-c2c[nH]c3ncc(-c4ccc5c(c4)CC[C@@](C)(N4CCC[C@H]4C)CC5)cc23)cc1` [Example 172, 3-Methyl-2-(4-{5-[(7S)-7-methyl-7-[(2R)-2-methylpyrrolidin-1-yl]-6,7,8,9-tetrahydro-5H-benzo[7]annulen-2-yl]-1H-pyrrolo[2,3-b]pyridin-3-yl}phenyl)pyridine]: the IC50 against p-AXL and at Axl was less than 100 nM in each case.
In the case of `Cn1nccc1-c1ccc(-c2n[nH]c3ncc(-c4ccc5c(c4)CC[C@@H](N4C6COCC4C6)CC5)cc23)cc1` [Example 109, 6-[(7S)-2-{3-[4-(1-Methyl-1H-pyrazol-5-yl)phenyl]-1H-pyrazolo[3,4-b]pyridin-5-yl}-6,7,8,9-tetrahydro-5H-benzo[7]annulen-7-yl]-3-oxa-6-azabicyclo[3.1.1]heptane], the IC50 against p-AXL and at Axl was less than 100 nM throughout.
Consider `C[C@@H]1CCCN1[C@@]1(C)CCc2ccc(-c3cnc4[nH]nc(-c5ccc(-c6ncnn6C)cc5)c4c3)cc2CC1` [Example 112, 1-Methyl-5-(4-{5-[(7S)-7-methyl-7-[(2R)-2-methylpyrrolidin-1-yl]-6,7,8,9-tetrahydro-5H-benzo[7]annulen-2-yl]-1H-pyrazolo[3,4-b]pyridin-3-yl}phenyl)-1H-1,2,4-triazole], for which the IC50 at p-AXL and at Axl was less than 100 nM throughout.
In the case of `CN(C)C(=O)c1cccnc1-c1ccc(-c2c[nH]c3ncc(-c4ccc5c(c4)CC[C@@H](N4C6COCC4C6)CC5)cc23)cc1` [Example 165, N,N-Dimethyl-2-(4-{5-[(7S)-7-{3-oxa-6-azabicyclo[3.1.1]heptan-6-yl}-6,7,8,9-tetrahydro-5H-benzo[7]annulen-2-yl]-1H-pyrrolo[2,3-b]pyridin-3-yl}phenyl)pyridine-3-carboxamide], the IC50 against p-AXL and on Axl was less than 100 nM each time.
For `c1ccc(-c2ccc(-c3c[nH]c4ncc(-c5ccc6c(c5)CC[C@@H](N5C7COCC5C7)CC6)cc34)cc2)nc1` [Example 155, 6-[(7S)-2-{3-[4-(Pyridin-2-yl)phenyl]-1H-pyrrolo[2,3-b]pyridin-5-yl}-6,7,8,9-tetrahydro-5H-benzo[7]annulen-7-yl]-3-oxa-6-azabicyclo[3.1.1]heptane], the IC50 is 100 to 1000 nM against p-AXL and less than 100 nM on Axl.
Taken in the same sequence, the figures for `CN(C)C(=O)c1cccnc1-c1ccc(-c2n[nH]c3ncc(-c4ccc5c(c4)CC[C@@H](N4C6COCC4C6)CC5)cc23)cc1` [Example 167, N,N-Dimethyl-2-(4-{5-[(7S)-7-{3-oxa-6-azabicyclo[3.1.1]heptan-6-yl}-6,7,8,9-tetrahydro-5H-benzo[7]annulen-2-yl]-1H-pyrazolo[3,4-b]pyridin-3-yl}phenyl)pyridine-3-carboxamide] were less than 100 nM and less than 100 nM.
For `Cn1ncnc1-c1ccc(-c2n[nH]c3ncc(-c4ccc5c(c4)CC[C@@H](N4C6COCC4C6)CC5)cc23)cc1` [Example 110, 6-[(7S)-2-{3-[4-(1-Methyl-1H-1,2,4-triazol-5-yl)phenyl]-2H-pyrazolo[3,4-b]pyridin-5-yl}-6,7,8,9-tetrahydro-5H-benzo[7]annulen-7-yl]-3-oxa-6-azabicyclo[3.1.1]heptane], in that order: less than 100 nM and less than 100 nM.
